Earlier results in patent US10206404B2, “Disinfectant” (Saban Ventures Pty Limited, priority 2012, dated 2019).

Conditions: unbuffered peroxyacetic acid, regardless of how it is produced

CC(=O)OO [peroxyacetic acid]
pH: around 2.8
